Like-named read-outs stand apart in the source and are kept apart here.

The test system of data set [1] is spatial learning and memory. The experiment in a line: Morris Water Maze test of spatial learning and memory. It is filed as in vivo, male Wistar rats. The note with it: for Improvement of spatial learning and/or memory: control animals and insulin-resistant animals; for Escape latency compared to controls: treatment for twelve weeks. An excerpt: 8-week old, male, Wistar rats were divided into eight groups: four control groups (C) and four insulin-resistant groups (HFD). Insulin resistance was induced in by feeding the rats a high-fat diet (40% of calories as fat). The four groups in the control and insulin-resistant groups included: a no treatment group, a 14.3 mcg chromium picolinate group (CrPic), a 19.7 mcg chromium histidinate group (CrHis), and a 7.15 chromium picolinate and 9.85 chromium histidinate group (CrPic+CrHis). Four rats were assigned to each of the eight groups. Treatments were administered for twelve weeks.
Spatial learning and memory were then tested using the Morris Water Maze test. Rats were placed in a circular water tank (120 cm diameter, 50 cm height) that was partially filled with water (25° C.). Milk powder was used to render the water opaque. Each rat was acclimated to the task with two days of free-swimming in the pool with no platform. […] Distal spatial cues were provided and kept constant throughout the testing, such that the rats could use the cues to find the platform. Rats were given 60 seconds to find the platform during each trial. The escape latency was defined as the time required for the rat to find a hidden platform.
A probe trial was performed in which the hidden platform was removed from the pool, and the animal was allowed to swim for 60 seconds. Typically, a rat will swim in a quadrant of the pool where the platform was previously hidden.

A further data set deals with cerebral activation. The experiment in a line: fMRI during working memory (visual-spatial n-back) task in trial subjects with Mild Cognitive Impairment. Type of data set: in vivo, men and women. The method, then: (§1) A randomized, double blind, placebo-controlled trial is conducted to evaluate the efficacy of chromium picolinate in producing enhancements of neuropsychological function in men and women with Mild Cognitive Impairment. Changes in indices of glucose metabolism and in salivary cortisol levels also are measured to gather exploratory information concerning potential mechanisms by which the intervention produces its effects. The subjects participate in a 12-week protocol with major assessments of neuropsychological and biological measures at pre-treatment baseline and during the final week of the intervention. In addition, a brief interim evaluation of neurocognitive function is conducted at 6 weeks to gather information that to assess trends and acute response. Mood, as a potential covariate of the neurobehavioral outcome measures, is also assessed. Overall diet and consumption of other supplements are assessed with diet diaries at different phases of the intervention. Compliance and adverse responses are monitored throughout the period of the intervention by means of weekly telephone contacts.
(§2) Chromium picolinate: The chromium supplement is provided by Nutrition21, Purchase, N.Y., a major distributor of the chromium picolinate supplement form. A single capsule 1000 mcg dose is administered to subjects receiving the chromium treatment with the morning meal each day for the duration of the intervention. Similar appearing placebo capsules are administered in a similar manner to subjects receiving the placebo treatment.
A neuropsychological protocol is administered and fMRI scans are obtained before and after treatments using a Varian INOVA 4 Tesla scanner. Two runs of BOLD EPI, 30 contiguous 5 mm coronal slices are acquired. Images are obtained while subjects performed the NIH visual-spatial n-back task with 0- and 1-back blocks. There are 20, 1.5 s trials per block; each block repeated 6 times. Image analyses are performed using AFNI and included co-registration, motion correction, blur, normalization, and event-related analysis. […]

Another data set has as its system HFD/STZ-treated rats. The experiment in a line: Rat model of type 2 diabetes (high-fat diet + streptozotocin): chromium, carbohydrate metabolism and serotonergic properties. Type of data set: in vivo, male Sprague-Dawley rats. On the set-up: Cortisol: unit not given here. As to the method: An animal model of type 2 diabetes was produced by feeding male Sprague-Dawley rats (n=33) with a high-fat diet (HFD, 40% Kcal from fat) for 2 weeks, then intraperitoneally administering streptozotocin (STZ, 40 mg/kg). The HFD/STZ-treated rats were then administered 80 mcg chromium picolinate/kg body weight/day for 10 weeks. Chromium picolinate was obtained from Nutrition 21, Purchase, N.Y. Untreated Sprague-Dawley (standard control diet) and HFD/STZ-treated rats not administered chromium picolinate served as controls.
Chromium picolinate administration to HFD/STZ treated rats increased brain chromium levels and improved all measurements or carbohydrate metabolism and serotonergic properties.

Data set [2] is described as follows: Placebo-controlled trial in Mild Cognitive Impairment: chromium to creatinine ratio. It is filed as in vivo, men and women. As to the method:
as §1
(§3) Chromium picolinate: The chromium supplement is provided by Nutrition21, Purchase, N.Y., a major distributor of the chromium picolinate supplement form. […]

For another data set, the system named is rats. As to conditions: cited from earlier work.
The test system of another data set is memory function. The experiment in a line: California Verbal Learning Test in trial subjects with Mild Cognitive Impairment. Type of data set: in vivo, men and women. As to the method:
as §1
California Verbal Learning Test: The California Verbal Learning Test (CVLT) is among the best designed of a number of list learning procedures used to assess memory consolidation ability. It provides data on learning rate or efficiency, interference effects, recall, and recognition memory. Reliability and validity data are adequate and well established. Our data with a middle-aged sample indicated a trend for recall and recognition memory effects on this procedure.
as §2

Another data set deals with motor speed. The experiment in a line: Trail-Making task in trial subjects with Mild Cognitive Impairment. It is filed as in vivo, men and women. As to the method:
as §1, §3

The mark [3] stands for this setting: control rats (C), FIGS. 1A and 1C.
The mark [4] stands for this setting: 80 mcg chromium picolinate/kg body weight/day for 10 weeks, mean ± SD.
Setting [5] is: 80 mcg/kg body weight/day for 10 weeks.
[6] abbreviates: Study 1: 1000 mcg elemental chromium daily, 12 weeks, v placebo, effect size moderate.
[7] abbreviates: as printed under Results - Study 2.

For chromium picolinate, the “Improvement of spatial learning and/or memory” value in data set [1] was “effective in improving spatial learning and/or memory”. Besides, the “Escape latency compared to controls” value in data set [1] (setting [3]) is listed as “significantly shorter escape latencies on day 3”. In the data set with cerebral activation (Study 1: individual subjects, increasing working memory load), the “fMRI activation pattern, pre- v post-intervention scans” value is “increasing activation in left frontal and left parietal cortices”. Moreover, in the data set on cerebral activation (Study 2: n-back task in the scanner, v placebo), the “Performance on the working memory task” value was “not reflected in differential performance”. In addition, the “fMRI activation relative to placebo treated subjects” value in the data set with cerebral activation (Study 2: right thalamic, right temporal, right posterior parietal and bilateral frontal regions, p=0.005 corrected) is recorded as “greater activation”. Besides, in the data set with HFD/STZ-treated rats (setting [4]), the “CISI (insulin sensitivity)” value came to 1.3 ± 0.04, the “Chromium - Brain” value was found to be 22.6 ± 1.2 ng/g, the Cortisol came out at 11.5 ± 0.4 and the Glucose was 287.0 ± 2.7 mg/dL. In addition, in the data set with HFD/STZ-treated rats (setting [4]), the “Insulin Brain” value came out at 8.9 ± 2.0 ng/g, the “Insulin Serum” value stood at 25.9 ± 0.5 uU/mL, the Melatonin is 16.3 ± 0.2 µg/g and the “Serotonin Brain” value was found to be 520.3 ± 4.1 µg/g. Moreover, in the data set with HFD/STZ-treated rats (setting [4]), the “Serotonin Serum” value stood at 174.9 ± 2.5 mg/dL, the “Tryptophan Brain” value was 5.5 ± 0.2 µg/g and the “Tryptophan Serum” value turned out to be 16.1 ± 0.3 mg/dL. Moreover, in the data set with HFD/STZ-treated rats (setting [5]), the “Insulin resistance compared to the HFD/STZ group” value is listed as “reduced” and the “Tolerability / adverse events” value was “well tolerated without any adverse events”. Also, the “Chromium to creatinine ratios at treatment termination” value in data set [2] (Study 1: 1000 mcg elemental chromium daily for 12 weeks (n=11) v placebo (n=10), F=8.85, p=0.008) is reported as “significantly elevated”. Besides, the “Chromium to creatinine ratios at treatment termination” value in data set [2] (Study 2: 1000 mcg elemental chromium daily for 12 weeks (n=9) v placebo (n=4), F=8.86, p<0.0001) is “elevated”. Moreover, the Toxic effects entry with rats (rat, in vivo) is given as “without toxic effects”. The “Accuracy of memory on the California Verbal Learning Test” value in the data set on memory function (Study 1: 1000 mcg elemental chromium daily, 12 weeks, v placebo) is “No group differences”. In addition, the “Semantic interference (free recall intrusions)” value in the data set on memory function (setting [6]) is on record as “trend for reduced semantic interference”. Besides, the “Intrusion errors on the California Verbal Learning Test” value with memory function (Study 2: administered outside the scanner, relative to the placebo group) is listed as “reduced intrusion errors”. Also, in the data set on memory function (setting [7]), the “Accuracy of memory on the California Verbal Learning Test” value is “No group differences” and the Semantic interference result is given as “trend for reduced semantic interference”. For the same compound, the “Motor speed on the Trail-Making task” value in the data set with motor speed (setting [6]) is “trend for enhanced motor speed”. Moreover, the Motor speed result in the data set on motor speed (as printed under Results - Study 2, sentence breaks off) is listed as “trend for enhanced motor”.

For `[Cl][Cr]([Cl])[Cl]` [chromium chloride], in the data set with rats (rats, levels several thousand times the upper limit of the human ESADDI for chromium (based on body weight)), the Toxic effects result is recorded as “without toxic effects”.

Take chromium histidinate: the “Improvement of spatial learning and/or memory” value in data set [1] is listed as “effective in improving spatial learning and/or memory”. Besides, the “Escape latency compared to controls” value in data set [1] (setting [3]) is “significantly shorter escape latencies on day 3”; in data set [1] (insulin-resistant rats (HFD), FIGS. 1B and 1D), “significantly shorter escape latencies on days 3 and 5”.

These data come from US20100178362A1, “CHROMIUM COMPLEXES FOR IMPROVEMENT OF MEMORY AND COGNITIVE FUNCTION” (priority 2007, published 2010).
